In brackets after ≈: the same amount, converted by molar mass.
Columns and labels:
[1] = test system: Staphylococcus aureus; test: Oral antibacterial activity against Staphylococcus aureus IID 803 in mice (95% confidence limits); format: functional
[2] = test system: Escherichia coli; test: Inhibitory effect on DNA gyrase supercoiling activity against Escherichia coli KL-16; format: functional
[3] = test system: Escherichia coli; test: In vitro minimum inhibitory concentration against Escherichia coli KC-14; format: functional
[4] = test system: Klebsiella pneumoniae; test: In vitro minimum inhibitory concentration against Klebsiella pneumoniae B54; format: functional
[5] = test system: Escherichia coli; test: In vitro minimum inhibitory concentration against Escherichia coli NIHJ JC-2; format: functional
[6] = test system: Enterococcus faecalis; test: In vitro minimum inhibitory concentration against E. Faecalis IID682; format: functional
[7] = test system: Pseudomonas aeruginosa; test: In vitro minimum inhibitory concentration against Pseudomonas aeruginosa E-2; format: functional
[8] = test system: Salmonella typhimurium; test: In vitro minimum inhibitory concentration against Salmonella Typhimurium IID 971; format: functional, Salmonella enterica subsp. enterica serovar Typhimurium; conditions: Salmonella enterica
[9] = test system: Escherichia coli; test: In vitro minimum inhibitory concentration against Escherichia coli KL-16; format: functional
[10] = test system: Pseudomonas aeruginosa; test: In vitro minimum inhibitory concentration against Pseudomonas aeruginosa IFO 3445; format: functional
[11] = test system: Staphylococcus aureus; test: In vitro minimum inhibitory concentration against Staphylococcus aureus IID 803; format: functional
[12] = test system: Escherichia coli; test: Oral antibacterial activity against Escherichia coli KC-14 in mice; format: functional
[13] = test system: Staphylococcus epidermidis; test: In vitro minimum inhibitory concentration against Staphylococcus epidermidis IAM 1296; format: functional
[14] = test system: Pseudomonas aeruginosa; test: Oral antibacterial activity against Pseudomonas aeruginosa E-2 in mice; format: functional
[15] = test system: Staphylococcus aureus; test: In vitro minimum inhibitory concentration against Staphylococcus aureus FDA 209P JC-1; format: functional

| SMILES | IC50 [2] [µg/mL] | MIC [3] [µg/mL] | MIC [4] [µg/mL] | MIC [5] [µg/mL] | MIC [6] [µg/mL] | MIC [7] [µg/mL] | MIC [8] [µg/mL] | MIC [9] [µg/mL] | MIC [10] [µg/mL] | MIC [11] [µg/mL] | MIC [13] [µg/mL] | MIC [15] [µg/mL] | ED50 [1] [mg/kg] | ED50 [12] [mg/kg] | ED50 [14] [mg/kg] |
| --- | --- | --- | --- | --- | --- | --- | --- | --- | --- | --- | --- | --- | --- | --- | --- |
| CN1CCN(c2c(F)cc3c(=O)c(C(=O)O)c4scc5n4c3c2C(=O)C5)CC1.Cl | > 10 | 12.5 | 25 | 12.5 | 50 | 100 | 12.5 | 12.5 | 100 | 6.25 | 12.5 | 6.25 | – | – | – |
| CN1CCN(c2c(F)cc3c(=O)c(C(=O)O)c4scc5n4c3c2N(Cc2ccccc2)C5)CC1.Cl | > 10 | 12.5 | 50 | 25 | 25 | 100 | 50 | 25 | 100 | 3.13 | 12.5 | 6.25 | – | – | – |
| CN1CCN(c2c(F)cc3c(=O)c(C(=O)O)c4scc5n4c3c2N(c2ccccc2)C5)CC1.Cl | 1.76 | 3.13 | 3.13 | 3.13 | 25 | 100 | 3.13 | 3.13 | 100 | 0.78 | 1.56 | 1.56 | – | – | – |
| CC1COc2c(N3CCN(C)CC3)c(F)cc3c(=O)c(C(=O)O)cn1c23 (centres undefined) [OFLOXACIN] | – | 0.1 (≈ 0.277 µM) | 0.1 (≈ 0.277 µM) | 0.1 (≈ 0.277 µM) | 1.56 (≈ 4.32 µM) | 1.56 (≈ 4.32 µM) | 0.05 (≈ 0.138 µM) | – | 1.56 (≈ 4.32 µM) | 0.39 (≈ 1.08 µM) | 0.78 (≈ 2.16 µM) | 0.39 (≈ 1.08 µM) | – | – | – |
| C=CCN1Cc2csc3c(C(=O)O)c(=O)c4cc(F)c(N5CCN(C)CC5)c1c4n23.Cl | 0.45 | 0.39 | 12.5 | 0.78 | 3.13 | 6.25 | 0.78 | 0.78 | 1.56 | 0.39 | 0.78 | 0.39 | – | – | – |
| CCN1Cc2csc3c(C(=O)O)c(=O)c4cc(F)c(N5CCN(C)CC5)c1c4n23 | 0.25 (≈ 0.6 µM) | 0.2 (≈ 0.48 µM) | 0.2 (≈ 0.48 µM) | 0.39 (≈ 0.936 µM) | 0.78 (≈ 1.87 µM) | 3.13 (≈ 7.52 µM) | 0.2 (≈ 0.48 µM) | 0.2 (≈ 0.48 µM) | 3.13 (≈ 7.52 µM) | 0.2 (≈ 0.48 µM) | 0.2 (≈ 0.48 µM) | 0.2 (≈ 0.48 µM) | – | – | – |

The remaining molecules from weak to strong by MIC [3], led by results:

| IC50 [2] [µg/mL] | MIC [3] [µg/mL] | MIC [4] [µg/mL] | MIC [5] [µg/mL] | MIC [6] [µg/mL] | MIC [7] [µg/mL] | MIC [8] [µg/mL] | MIC [9] [µg/mL] | MIC [10] [µg/mL] | MIC [11] [µg/mL] | MIC [13] [µg/mL] | MIC [15] [µg/mL] | SMILES | ED50 [1] [mg/kg] | ED50 [12] [mg/kg] | ED50 [14] [mg/kg] |
| --- | --- | --- | --- | --- | --- | --- | --- | --- | --- | --- | --- | --- | --- | --- | --- |
| 0.24 (≈ 0.592 µM) | 0.2 (≈ 0.493 µM) | 0.2 (≈ 0.493 µM) | 0.2 (≈ 0.493 µM) | 0.78 (≈ 1.92 µM) | 3.13 (≈ 7.72 µM) | 0.1 (≈ 0.247 µM) | 0.2 (≈ 0.493 µM) | 3.13 (≈ 7.72 µM) | 0.2 (≈ 0.493 µM) | 0.39 (≈ 0.962 µM) | 0.2 (≈ 0.493 µM) | CN1CCN(c2c(F)cc3c(=O)c(C(=O)O)c4scc5n4c3c2SC5)CC1 | – | – | – |
| 0.14 (≈ 0.36 µM) | 0.1 (≈ 0.257 µM) | 0.1 (≈ 0.257 µM) | 0.1 (≈ 0.257 µM) | 0.39 (≈ 1 µM) | 0.78 (≈ 2 µM) | 0.05 (≈ 0.128 µM) | 0.05 (≈ 0.128 µM) | 0.78 (≈ 2 µM) | 0.1 (≈ 0.257 µM) | 0.2 (≈ 0.514 µM) | 0.1 (≈ 0.257 µM) | CN1CCN(c2c(F)cc3c(=O)c(C(=O)O)c4scc5n4c3c2OC5)CC1 | 12.3 | 1.4 | 11.7 |
| 0.34 (≈ 0.793 µM) | 0.1 (≈ 0.233 µM) | 0.2 (≈ 0.467 µM) | 0.2 (≈ 0.467 µM) | 0.78 (≈ 1.82 µM) | 3.13 (≈ 7.3 µM) | 0.39 (≈ 0.91 µM) | 0.2 (≈ 0.467 µM) | 1.56 (≈ 3.64 µM) | 0.2 (≈ 0.467 µM) | 0.39 (≈ 0.91 µM) | 0.2 (≈ 0.467 µM) | CN1CCN(c2c(F)cc3c(=O)c(C(=O)O)c4scc5n4c3c2N(C2CC2)C5)CC1 | – | – | – |
| 0.16 (≈ 0.398 µM) | 0.05 (≈ 0.124 µM) | 0.05 (≈ 0.124 µM) | 0.05 (≈ 0.124 µM) | 0.1 (≈ 0.248 µM) | 0.78 (≈ 1.94 µM) | 0.05 (≈ 0.124 µM) | 0.05 (≈ 0.124 µM) | 0.39 (≈ 0.969 µM) | 0.05 (≈ 0.124 µM) | 0.05 (≈ 0.124 µM) | 0.05 (≈ 0.124 µM) | CN1CCN(c2c(F)cc3c(=O)c(C(=O)O)c4scc5n4c3c2N(C)C5)CC1 | 2.8 | 0.9 | 10.2 |

From ChEMBL document CHEMBL1126791, “Synthesis and antibacterial activity of a new series of tetracyclic pyridone carboxylic acids” (J Med Chem, 1993)
